Data from EP1151753B1, “PREVENTIVE AND THERAPEUTIC AGENTS FOR ARTERIOSCLEROSIS” (CCI CORPORATION, priority 1999, dated 2000).

Legend:
[1] = Biochemical test of blood and measurement of body weight, WHHL rabbit model; format: in vivo, WHHL type rabbits; conditions: WHHL rabbits
Experimental: Now, the pharmacogenic effect of the agent of this invention for preventing and curing arteriosclerosis will be described specifically below with reference to a pharmacological test using high cholesterol-loaded rabbits and the WHHL (Watanabe heritable hyperlipidemic) rabbits forming a model of the familial high-cholesterol blood disease. The data were wholly reported by the average ± standard error (SE) and the significant differences among separate groups were determined by the Student's t-test. The risk factor, p < 0.05, was rated as forming a significance of difference.
1. Animal used and feeding conditions In the test, female and male WHHL type rabbits (SPF: Kitayama Labels K.K.) which were eight weeks old at the time of arrival at the laboratory were subjected to quarantine and domestication and visually inspected as to the general condition and, after the absence of abnormality was confirmed, put to use. The body weights at the time of starting administration (at the age of nine weeks) were in the range of 1.5 - 1.9 kg in the case of male rabbits and in the range of 1.4 - 1.8 kg in the case of female rabbits. Throughout the entire duration of the test, the animals were raised as accommodated one each in hanger cages of aluminum installed on a stainless steel rack inside a clean feeding chamber set at a temperature in the range of 20 - 26°, a relative humidity in the range of 40 - 70%, a number of ventilations in the range of 10 - 20 turns/hour, and an illumination time within the range of 12 hours (7.00 - 19:00). They were fed on a commercially available radioactively sterilized solid feed (made by Oriental Kobo K.K. and sold under the product code of "RC4") and they were left freely drinking the tap water delivered by an automatic water supplying device. 2. Setting dosage and method of administration The dosage of TMG was set at 800 mg/head/day. The TMG was solved in reagent grade ethanol. The produced solution was sprayed on the feed and the wet feed was left drying in the air. A mixed feed was prepared so as to contain 800 mg of TMG per 100 g of the feed. The mixed feed was given to the rabbits every morning at a rate of 100 g/day per head for 27 weeks for the sake of attaining oral consumption of the TMG. The feed for the control group was obtained by spraying ethanol alone on a feed and air-drying the wet feed. It was given to the rabbits of the control group at a rate of 100 g/day per head for 27 weeks. 3. Formation of groups and number of animals A control group and a TMG-administration group were formed; each group consistingof threemales and three females, namely a total of six rabbits. These animals were apportioned to the two groups randomly and nevertheless elaborately so as to avoid confusion of the children of one brood in either group to the fullest possible extent and equalize as much as permissible the average body weights and the average total cholesterol numbers in blood serum of the two groups with the body weights and the total cholesterol numbers found at the time of completion of the domestication. 4. […] The blood was centrifuged to separate blood serum and the blood serum was analyzed for the items shown in Table 5 by the use of an automatic analyzer (made by Hitachi. Ltd. and sold under the product code of "736-20"). The body weight of each rabbit was measured at the rate of once a week throughout the entire duration of the administration.

WHHL rabbit model = test: Evaluation of morbid alteration of aorta (Sudan dyeing), WHHL rabbit model; format: in vivo, WHHL type rabbits; conditions: WHHL rabbits
Description: 1. Animal used and feeding conditions In the test, female and male WHHL type rabbits (SPF: Kitayama Labels K.K.) which were eight weeks old at the time of arrival at the laboratory were subjected to quarantine and domestication and visually inspected as to the general condition and, after the absence of abnormality was confirmed, put to use. The body weights at the time of starting administration (at the age of nine weeks) were in the range of 1.5 - 1.9 kg in the case of male rabbits and in the range of 1.4 - 1.8 kg in the case of female rabbits. Throughout the entire duration of the test, the animals were raised as accommodated one each in hanger cages of aluminum installed on a stainless steel rack inside a clean feeding chamber set at a temperature in the range of 20 - 26°, a relative humidity in the range of 40 - 70%, a number of ventilations in the range of 10 - 20 turns/hour, and an illumination time within the range of 12 hours (7.00 - 19:00). […] The blood was centrifuged to separate blood serum and the blood serum was analyzed for the items shown in Table 5 by the use of an automatic analyzer (made by Hitachi. Ltd. and sold under the product code of "736-20"). The body weight of each rabbit was measured at the rate of once a week throughout the entire duration of the administration. […]

[2] = TMG 800 mg/head/day for 27 weeks
[3] = blood serum, TMG 800 mg/head/day in feed, average ± SE

Cc1c(C)c2c(c(C)c1O)CCC(C)(C[C@H]1O[C@H](CO)[C@@H](O)[C@H](O)[C@H]1O)O2 (stereo partly drawn) [TMG, 2-(α-D-glucopyranosyl)methyl-2,5,7,8-tetramethyl chroman-6-ol]
activity of lowering the blood serum lipids (T-CHO, TG, PL, LDL-CHO) [1, 2]: no activity | biochemical test of blood [1, 2]: no sign of abnormality | Body weight ([1]; TMG 800 mg/head/day in feed, average ± SE): 2.89 ± 0.11 kg | ALB [1, 3]: 2.4 ± 0.1 g/dL | ALP [1, 3]: 87± 5 mU/ml | ChE [1, 3]: 0.19 ± 0.05 U/ml | GOT [1, 3]: 26.0 ± 11.1 mU/ml | GPT [1, 3]: 59.7 ± 12.3 mU/ml | LDH [1, 3]: 97 ± 4 mU/ml | PL [1, 3]: 459 ± 52 mg/dL | T-CHO [1, 3]: 934 ± 49 mg/dL | TG [1, 3]: 169 ± 23 mg/dL | occurrence of the atherosclerosis (WHHL rabbit model; [2]): significantly repressing | Surface involvement (%) (WHHL rabbit model; area occupied by deposited lipid in whole area of aorta, TMG 800 mg/head/day in feed, 27th week, control 64.6±3.9, p < 0.05): 52.4 ± 4.7 %
